US11279681B2, “3-alkyl bicyclic [4,5,0] hydroxamic acids as HDAC inhibitors” (Valo Health, Inc., priority 2015, dated 2022)

target: T1, HDAC6 (Homo sapiens, UniProt Q9UBN7); assay: In vitro histone deacetylase assay: enzymatic HDAC6 electrophoretic mobility shift assay; format: biochemical; settings: full length human recombinant HDAC6, 1 nM enzyme, 2 μM peptide substrate RHKK(Ac)-NH2, 25° C.; read-out: Inhibitory Concentration (IC50) Values for Representative Compounds against HDAC6, Activity Range
T1 sequence (Q9UBN7 1-1215): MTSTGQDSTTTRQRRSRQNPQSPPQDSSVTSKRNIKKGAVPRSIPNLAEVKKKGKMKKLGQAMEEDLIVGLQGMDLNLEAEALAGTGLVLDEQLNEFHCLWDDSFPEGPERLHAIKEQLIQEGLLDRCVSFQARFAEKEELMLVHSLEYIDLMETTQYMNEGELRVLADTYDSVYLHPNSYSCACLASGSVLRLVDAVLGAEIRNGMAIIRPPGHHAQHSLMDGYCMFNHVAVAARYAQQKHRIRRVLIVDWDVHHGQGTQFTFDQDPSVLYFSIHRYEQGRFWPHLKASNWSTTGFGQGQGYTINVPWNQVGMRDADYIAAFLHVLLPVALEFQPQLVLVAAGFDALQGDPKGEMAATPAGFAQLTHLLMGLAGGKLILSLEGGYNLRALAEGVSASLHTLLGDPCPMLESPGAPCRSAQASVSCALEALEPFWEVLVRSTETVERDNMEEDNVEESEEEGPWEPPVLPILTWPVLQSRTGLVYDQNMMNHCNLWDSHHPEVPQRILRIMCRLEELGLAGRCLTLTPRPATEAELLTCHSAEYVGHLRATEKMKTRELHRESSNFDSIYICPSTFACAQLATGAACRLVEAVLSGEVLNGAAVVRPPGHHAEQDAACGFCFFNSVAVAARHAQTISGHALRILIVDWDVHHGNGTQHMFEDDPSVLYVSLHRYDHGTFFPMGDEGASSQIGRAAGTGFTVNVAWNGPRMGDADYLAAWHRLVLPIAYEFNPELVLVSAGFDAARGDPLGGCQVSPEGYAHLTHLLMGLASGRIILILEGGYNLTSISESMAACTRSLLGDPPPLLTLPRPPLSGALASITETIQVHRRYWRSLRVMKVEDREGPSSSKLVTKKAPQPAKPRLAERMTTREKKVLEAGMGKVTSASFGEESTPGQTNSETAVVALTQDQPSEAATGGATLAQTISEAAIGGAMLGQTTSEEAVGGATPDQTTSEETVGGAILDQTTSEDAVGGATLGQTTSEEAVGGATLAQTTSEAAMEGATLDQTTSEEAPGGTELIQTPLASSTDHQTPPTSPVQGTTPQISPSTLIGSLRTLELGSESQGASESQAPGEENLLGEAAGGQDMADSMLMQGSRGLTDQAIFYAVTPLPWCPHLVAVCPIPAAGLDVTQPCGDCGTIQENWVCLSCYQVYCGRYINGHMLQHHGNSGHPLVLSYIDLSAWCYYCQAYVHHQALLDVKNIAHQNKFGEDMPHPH

Row | IC50 [µM] | Structure (SMILES)
1 | ≤ 0.1 | C[C@H]1COc2cc(C(=O)NO)ccc2CN1Cc1ccc(F)cc1 [(S)-4-(4-fluorobenzyl)-N-hydroxy-3-methyl-2,3,4,5-tetrahydrobenzo[f][1,4]oxazepine-8-carboxamide]
2 | ≤ 0.1 | C[C@H]1COc2cc(C(=O)NO)ccc2CN1c1ccc(F)cc1 [(S)-4-(4-fluorophenyl)-N-hydroxy-3-methyl-2,3,4,5-tetrahydrobenzo[f][1,4]oxazepine-8-carboxamide]
3 | ≤ 0.1 | C[C@H]1COc2cc(C(=O)NO)ccc2CN1C(=O)N1C[C@H]2CC[C@H](C1)O2 [(S)-4-((1R,5R)-8-oxa-3-azabicyclo[3.2.1]octane-3-carbonyl)-N-hydroxy-3-methyl-2,3,4,5-tetrahydrobenzo[f][1,4]oxazepine-8-carboxamide]
4 | ≤ 0.1 | C[C@H]1COc2cc(C(=O)NO)ccc2CN1C(=O)N1C[C@@H]2CC[C@@H](C1)O2 [(S)-4-((1S,5S)-8-oxa-3-azabicyclo[3.2.1]octane-3-carbonyl)-N-hydroxy-3-methyl-2,3,4,5-tetrahydrobenzo[f][1,4]oxazepine-8-carboxamide]
5 | 0.1 to 0.5 | C[C@H]1COc2cc(C(=O)NO)ccc2CN1S(=O)(=O)c1ccc(F)cc1 [(S)-4-((4-fluorophenyl)sulfonyl)-N-hydroxy-3-methyl-2,3,4,5-tetrahydrobenzo[f][1,4]oxazepine-8-carboxamide]
6 | ≤ 0.1 | C[C@H]1COc2cc(C(=O)NO)ccc2CN1C(=O)N1CCC1 [(S)-4-(azetidine-1-carbonyl)-N-hydroxy-3-methyl-2,3,4,5-tetrahydrobenzo[f][1,4]oxazepine-8-carboxamide]
7 | ≤ 0.1 | C[C@H]1COc2cc(C(=O)NO)ccc2CN1CC1CCC1 [(S)-4-(cyclobutylmethyl)-N-hydroxy-3-methyl-2,3,4,5-tetrahydrobenzo[f][1,4]oxazepine-8-carboxamide]
8 | ≤ 0.1 | C[C@H]1COc2cc(C(=O)NO)ccc2CN1CC1CCCCC1 [(S)-4-(cyclohexylmethyl)-N-hydroxy-3-methyl-2,3,4,5-tetrahydrobenzo[f][1,4]oxazepine-8-carboxamide]
9 | ≤ 0.1 | C[C@H]1COc2cc(C(=O)NO)ccc2CN1CC1CCCC1 [(S)-4-(cyclopentylmethyl)-N-hydroxy-3-methyl-2,3,4,5-tetrahydrobenzo[f][1,4]oxazepine-8-carboxamide]
10 | ≤ 0.1 | C[C@H]1COc2cc(C(=O)NO)ccc2CN1CC1CC1 [(S)-4-(cyclopropylmethyl)-N-hydroxy-3-methyl-2,3,4,5-tetrahydrobenzo[f][1,4]oxazepine-8-carboxamide]
11 | ≤ 0.1 | CCS(=O)(=O)N1Cc2ccc(C(=O)NO)cc2OC[C@@H]1C [(S)-4-(ethylsulfonyl)-N-hydroxy-3-methyl-2,3,4,5-tetrahydrobenzo[f][1,4]oxazepine-8-carboxamide]
12 | 0.1 to 0.5 | C[C@H]1COc2cc(C(=O)NO)ccc2CN1C1CCCC1 [(S)-4-cyclopentyl-N-hydroxy-3-methyl-2,3,4,5-tetrahydrobenzo[f][1,4]oxazepine-8-carboxamide]
13 | 0.1 to 0.5 | CCN1Cc2ccc(C(=O)NO)cc2OC[C@@H]1C [(S)-4-ethyl-N-hydroxy-3-methyl-2,3,4,5-tetrahydrobenzo[f][1,4]oxazepine-8-carboxamide]
14 | ≤ 0.1 | C[C@H]1COc2cc(C(=O)NO)ccc2CN1C(=O)NC1CCCCC1 [(S)-N4-cyclohexyl-N8-hydroxy-3-methyl-2,3-dihydrobenzo[f][1,4]oxazepine-4,8(5H)-dicarboxamide]
15 | 0.1 to 0.5 | COC[C@@H]1CN(C(=O)Nc2ccc(OC)cc2)Cc2ccc(C(=O)NO)cc2O1 [(S)-N8-hydroxy-2-(methoxymethyl)-N4-(4-methoxyphenyl)-2,3-dihydrobenzo[f][1,4]oxazepine-4,8(5H)-dicarboxamide]
16 | ≤ 0.1 | C[C@H]1COc2cc(C(=O)NO)ccc2CN1C(=O)Nc1ccccn1 [(S)-N8-hydroxy-3-methyl-N4-(pyridin-2-yl)-2,3-dihydrobenzo[f][1,4]oxazepine-4,8(5H)-dicarboxamide]
17 | ≤ 0.1 | C[C@H]1COc2cc(C(=O)NO)ccc2CN1C(=O)Nc1cccnc1 [(S)-N8-hydroxy-3-methyl-N4-(pyridin-3-yl)-2,3-dihydrobenzo[f][1,4]oxazepine-4,8(5H)-dicarboxamide]

Row | IC50 [µM] | Structure (SMILES)
18 | ≤ 0.1 | C[C@H]1COc2cc(C(=O)NO)ccc2CN1C(=O)Nc1ccncc1 [(S)-N8-hydroxy-3-methyl-N4-(pyridin-4-yl)-2,3-dihydrobenzo[f][1,4]oxazepine-4,8(5H)-dicarboxamide]
19 | ≤ 0.1 | C[C@H]1COc2cc(C(=O)NO)ccc2CN1C(=O)NC1CCOCC1 [(S)-N8-hydroxy-3-methyl-N4-(tetrahydro-2H-pyran-4-yl)-2,3-dihydrobenzo[f][1,4]oxazepine-4,8(5H)-dicarboxamide]
20 | ≤ 0.1 | C[C@H]1COc2cc(C(=O)NO)ccc2CN1C(=O)Nc1ccccc1 [(S)-N8-hydroxy-3-methyl-N4-phenyl-2,3-dihydrobenzo[f][1,4]oxazepine-4,8(5H)-dicarboxamide]
21 | ≤ 0.1 | C[C@H]1COc2cc(C(=O)NO)ccc2CN1C(=O)N(C)C1CCOCC1 [(S)-N8-hydroxy-N4,3-dimethyl-N4-(tetrahydro-2H-pyran-4-yl)-2,3-dihydrobenzo[f][1,4]oxazepine-4,8(5H)-dicarboxamide]
22 | 0.1 to 0.5 | C[C@H]1COc2cc(C(=O)NO)ccc2CN1C(=O)N(C)c1ccccc1 [(S)-N8-hydroxy-N4,3-dimethyl-N4-phenyl-2,3-dihydrobenzo[f][1,4]oxazepine-4,8(5H)-dicarboxamide]
23 | ≤ 0.1 | C[C@H]1COc2cc(C(=O)NO)ccc2CN1C(=O)N(C)C [(S)-N8-hydroxy-N4,N4,3-trimethyl-2,3-dihydrobenzo[f][1,4]oxazepine-4,8(5H)-dicarboxamide]
24 | ≤ 0.1 | COCCNC(=O)N1Cc2ccc(C(=O)NO)cc2OC[C@@H]1C [(S)-N8-hydroxy-N4-(2-methoxyethyl)-3-methyl-2,3-dihydrobenzo[f][1,4]oxazepine-4,8(5H)-dicarboxamide]
25 | ≤ 0.1 | COc1ccc(NC(=O)N2Cc3ccc(C(=O)NO)cc3O[C@@H](c3ccccc3)C2)cc1 [(S)-N8-hydroxy-N4-(4-methoxyphenyl)-2-phenyl-2,3-dihydrobenzo[f][1,4]oxazepine-4,8(5H)-dicarboxamide]
26 | ≤ 0.1 | COC[C@H]1COc2cc(C(=O)NO)ccc2CN1c1ccccc1C [(S)-N-hydroxy-3-(methoxymethyl)-4-(o-tolyl)-2,3,4,5-tetrahydrobenzo[f][1,4]oxazepine-8-carboxamide]
27 | ≤ 0.1 | COC[C@H]1COc2cc(C(=O)NO)ccc2CN1C [(S)-N-hydroxy-3-(methoxymethyl)-4-methyl-2,3,4,5-tetrahydrobenzo[f][1,4]oxazepine-8-carboxamide]
28 | ≤ 0.1 | COC[C@H]1COc2cc(C(=O)NO)ccc2CN1c1ccccc1 [(S)-N-hydroxy-3-(methoxymethyl)-4-phenyl-2,3,4,5-tetrahydrobenzo[f][1,4]oxazepine-8-carboxamide]
29 | ≤ 0.1 | CC(C)[C@H]1COc2cc(C(=O)NO)ccc2CN1c1ccccn1 [(S)-N-hydroxy-3-isopropyl-4-(pyridin-2-yl)-2,3,4,5-tetrahydrobenzo[f][1,4]oxazepine-8-carboxamide]
30 | ≤ 0.1 | CC(C)[C@H]1COc2cc(C(=O)NO)ccc2CN1c1cccnc1 [(S)-N-hydroxy-3-isopropyl-4-(pyridin-3-yl)-2,3,4,5-tetrahydrobenzo[f][1,4]oxazepine-8-carboxamide]
31 | > 0.5 | CC(C)[C@H]1COc2cc(C(=O)NO)ccc2CN1c1ccncc1 [(S)-N-hydroxy-3-isopropyl-4-(pyridin-4-yl)-2,3,4,5-tetrahydrobenzo[f][1,4]oxazepine-8-carboxamide]
32 | 0.1 to 0.5 | C[C@H]1COc2cc(C(=O)NO)ccc2CN1CCN1CCOCC1 [(S)-N-hydroxy-3-methyl-4-(2-morpholinoethyl)-2,3,4,5-tetrahydrobenzo[f][1,4]oxazepine-8-carboxamide]
33 | 0.1 to 0.5 | C[C@H]1COc2cc(C(=O)NO)ccc2CN1c1cccc(C(F)(F)F)c1 [(S)-N-hydroxy-3-methyl-4-(3-(trifluoromethyl)phenyl)-2,3,4,5-tetrahydrobenzo[f][1,4]oxazepine-8-carboxamide]
34 | 0.1 to 0.5 | C[C@H]1COc2cc(C(=O)NO)ccc2CN1CCCN1CCOCC1 [(S)-N-hydroxy-3-methyl-4-(3-morpholinopropyl)-2,3,4,5-tetrahydrobenzo[f][1,4]oxazepine-8-carboxamide]
